These are literature values, as cited in US9339034B2, “Use of thaxtomin for selective control of rice and aquatic based weeds” (MARRONE BIO INNOVATIONS, INC., priority 2009, dated 2016).

The structures appear in SMILES notation.

The series has as its system weeds. The following applies: in vivo; cited from earlier work.

For `C=C(CO)C(C)(O)CC(=O)O` (stereo not shown) [mevalocidin], the “time to kill weeds” value was 3-4 weeks.
